B1: IL-10: cytokine (protein, UniProt P22301 19-178, looked up)
Interleukin-10: SPGQGTQSENSCTHFPGNLPNMLRDLRDAFSRVKTFFQMKDQLDNLLLKESLLEDFKGYLGCQALSEMIQFYLEEVMPQAENQDPDIKAHVNSLGENLKTLRLRLRRCHRFLPCENKSKAVEQVKNAFNKLQEKGIYKAMSEFDIFINYIEAYMTMKIRN
B2: IL-4: recombinant cytokine, manufactured by PeproTech (protein, UniProt P05112 25-153, looked up)
Interleukin-4: HKCDITLQEIIKTLNSLTEQKTLCTELTVTDIFAASKNTTEKETFCRAATVLRQFYSHHEKDTRCLGATAQQFHRHKQLIRFLKRLDRNLWGLAGLNSCPVKEANQSTLENFLERLKTIMREKYSKCSS
B3: IL-7: cytokine (protein, UniProt P13232 26-177, looked up)
Interleukin-7: DCDIEGKDGKQYESVLMVSIDQLLDSMKEIGSNCLNNEFNFFKRHICDANKEGMFLFRAARKLRQFLKMNSTGDFDLHLLKVSEGTTILLNCTGQVKGRKPAALGEAQPTKSLEENKSLKEQKKLNDLCFLKRLLQEIKTCWNKILMGTKEH

How the values were obtained:
RCCM cells = assay: Proliferation of RCCM cells, 3H-thymidine uptake; assay type: cell-based, mouse; settings: 48 hours culture, then 12 hours 3H-thymidine; for proliferation of RCCM cells in response to inhibitor (uptake amount of 3H-thymidine): 1/2 serial dilutions starting with 10 ng/ml
Procedure: (§1) R cells, N62.5 cells, or RCCM cells obtained in Example 1 were placed in each well of a 96-well microplate at a seeding density of 1.5×10^4 cells/well. A culture medium in which the content of RCGF was changed was used and the sensitivities of the cells to RCGF were confirmed.
(§2) The concentrations of RCGF were set to 10 v/v %, 0.1 v/v %, and 0 v/v %. The cells were cultured in an RPMI 1640 culture medium containing 10% by volume of serum at 37° C. in 5% CO2 atmosphere for 48 hours. Thereafter, ^3H-thymidine was added to the culture medium so as to give a final concentration of 0.5 μCi/ml, and the resultant was further cultured for 12 hours and the uptake amount of ^3H during the time was measured. After the reaction, the uptake amount of ^3H-thymidine was measured using MicroBeta TRIL UX (manufactured by WALLAC). In FIGS. 1 (A) to (C), black rhombuses indicate RCCM cells, black squares indicate R cells, and black triangles indicate N62.5 cells.
R cells, N62.5 cells, or RCCM cells obtained in Example 1 were placed in each well of a 96-well microplate at a seeding density of 1.5×10^4 cells/well.
(§3) In this regard, the concentration of RCGF was based on ½ serial dilutions (starting with 80% by volume of the culture medium). […] Thereafter, ^3H-thymidine was added to the culture medium so as to give a final concentration of 0.5 μCi/ml, and the resultant was further cultured for 12 hours and the uptake amount of ^3H during the time was measured. […]
R cells, N62.5 cells, or RCCM cells obtained in Example 1 were placed in each well of a 96-well microplate at a seeding density of 1.5×10^4 cells/well in the same manner as described in Example 4. ½ serial dilutions (starting with 10 ng/ml) of phorbol 12-myristate 13 acetate (PMA) were added to each well, and culturing was performed at 37° C. in 5% CO2 atmosphere for 48 hours. Thereafter, ^3H-thymidine was added to the culture medium so as to give a final concentration of 0.5 μCi/ml, which was further cultured for 12 hours and the uptake amount of ^3H during the time was measured. […]

R cells = assay: Proliferation of R cells, 3H-thymidine uptake; assay type: cell-based, mouse; settings: 1/2 serial dilutions starting with 10 ng/ml; 48 hours culture, then 12 hours 3H-thymidine
Procedure: as §1
as §2, with “cells. […]” for “cells.”
as §3

N62.5 cells = assay: Proliferation of N62.5 cells, 3H-thymidine uptake; assay type: cell-based, mouse; settings: 48 hours culture, then 12 hours 3H-thymidine
Procedure: as §1
as §2, with “cells. […]” for “cells.”
as §3

P185 cells = assay: Proliferation of P185 cells (basophil-like cell line), 3H-thymidine uptake; assay type: cell-based; settings: 1/2 serial dilutions starting with 10 ng/ml; 48 hours culture, then 12 hours 3H-thymidine
Procedure: R cells, N62.5 cells, or RCCM cells obtained in Example 1 and P185 cells (a basophil-like cell line) were placed in each well of a 96-well microplate at a seeding density of 1.5×10^4 cells/well in the same manner as described in Example 4. ½ serial dilutions (starting with 10 ng/ml) of LY294002 (a PI3K inhibitor; Cat No. FA-002, manufactured by SuperArray) and Rottlerin (a PKC inhibitor; Cat No. 557370, manufactured by CALBIOCHEM) were added to each well, which was cultured at 37° C. in a 5% CO2 atmosphere for 48 hours. Thereafter, ^3H-thymidine was added to the culture medium so as to give a final concentration of 0.5 μCi/ml, and culturing was further performed for 12 hours and the uptake amount of ^3H during the time was measured. In FIGS. 7 and 8, black squares indicate R cells, black triangles indicate N62.5 cells, black rhombuses indicate RCCM cells, and black circles indicate P185. FIG. 7 is a graph showing the response of respective cells to LY294002. FIG. 8 is a graph showing the response of respective cells to Rottlerin.

R cell = assay: Maintenance / growth potential of R cells in culture with cytokines or RCGF; assay type: cell-based, mouse
Procedure: Further, anti-Thy1.2 antibodies (manufactured by Pharmingen) and complement (rabbit serum, manufactured by Pel-Freeze) were respectively added to the resulting culture at 1 μg/ml and at a final concentration of 10% by volume per 1×10^7 cells/100 μl. After about 30 minutes of reaction, […] therefrom and the cultivation was continued while the RCGF was added at various concentrations.
Thereafter, respective cell lines were cultured in accordance with the dilution method over the course of three weeks and cloned.

Molecule	sensitivity / growth potential of R cell against cytokine (R cell)	also measured
CC(=O)c1c(O)c(C)c(O)c(Cc2c(O)c3c(c(C(=O)/C=C/c4ccccc4)c2O)OC(C)(C)C=C3)c1O [Rottlerin]	–	proliferation of RCCM cells in response to inhibitor (uptake amount of 3H-thymidine) (RCCM cells): rapidly suppressed; proliferation of R cells in response to inhibitor (uptake amount of 3H-thymidine) (R cells): rapidly suppressed; proliferation of N62.5 cells in response to inhibitor (uptake amount of 3H-thymidine) (N62.5 cells; 1/2 serial dilutions starting with 10 ng/ml): rapidly suppressed; proliferation of basophil-like cell line P185 in response to inhibitor (uptake amount of 3H-thymidine) (P185 cells): growth inhibition
IFN-γ: cytokine	does not show sensitivity	–
GM-CFS: cytokine	does not show sensitivity	–
CCCCCCCCCCCCCC(=O)O[C@@H]1[C@@H](C)[C@@]2(O)[C@@H](C=C(CO)C[C@]3(O)C(=O)C(C)=C[C@@H]23)[C@@H]2C(C)(C)[C@]12OC(C)=O [PMA, phorbol 12-myristate 13 acetate]	–	proliferation of RCCM cells in response to inhibitor (uptake amount of 3H-thymidine) (RCCM cells): suppressed by a low concentration
IL-5: interleukin, Th2 type cytokine	high growth potential	–
IL-9: interleukin, Th2 type cytokine	high growth potential	–
IL-13: interleukin, Th2 type cytokine	high growth potential	–
IL-6: interleukin, Th2 type cytokine	high growth potential	–
B1	does not show sensitivity	–
B2	high growth potential	proliferative response of RCCM cells to RCGF / cytokines (uptake amount of 3H-thymidine) (RCCM cells; various concentrations): no difference in growth potential; proliferative response of N62.5 cells to RCGF / cytokines (uptake amount of 3H-thymidine) (N62.5 cells; various concentrations): did not show sensitivity
B3	does not show sensitivity	–
